In assay [1] the target is Cdc7/Dbf4 (Homo sapiens, UniProt O00311). Nature of the assay: Cdc7 Biochemical Assay Method 3: Cdc7/Dbf4 Enzyme TR-FRET Assay measuring pS40MCM2. Conditions: 1 μM ATP, read-out: Biochemical Method 3 (pIC50) (converted). In outline:
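2.5 nM Cdc7/Dbf4 incubated with 100 nM biotinylated MCM2-derived peptide and 1 μM ATP, 120 minutes at 25° C. Phospho-S40 detected by TR-FRET using anti-pS40 Mcm2 antibody, terbium anti-rabbit secondary and streptavidin-Alexa Fluor488.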
A general note: TR-FRET usually uses a lanthanide donor and a delayed reading to cut background.

For assay [2], the system named is Cdc7 (pS40MCM2 levels in HCT116 cells). Nature of the assay: Cdc7 Cell Pharmacodynamics Assay Method 2A: pS40MCM2 levels in HCT116 cells, 6 hours. Type of assay: cell-based. The settings on record: Homo sapiens, HCT-116, read-out: Biomarker Method 2A (pEC50) (converted). The source says:
(§1) This protocol describes a method to investigate the inhibition of Cdc7 activity by measuring pS40MCM2 levels in cells, after treatment with compounds.
(§2) • HCT116 cells (ATCC, #CCL-247) • McCoys 5A with L-glutamine (Cellgro, #10-050-CV) • 10% FCS (Cellgro, #35-010-CV) • D-PBS without CaCl2 and MgCl2 (Cellgro, #21-031-CV) • Trypsin/EDTA (Cellgro, #25-052-CL) • BSA (Calbiochem, 126593) • Cell Extraction Buffer (Invitrogen FNN0011) • Protease inhibitor cocktail (Sigma P-2714) • PMSF 0.3M stock in DMSO (Sigma P7626) • Antibody-rabbit pMCM2 Ser40 (Abcam, AB133243) • Antibody-goat MCM2 (Bethyl #A300-122A) • Antibody-goat Anti Rabbit IgG HRP (Thermo, 31462) • SuperSignal ELISA Pico Chemiluminescent Substrate (Perbio Science UK Ltd 37069) • 10×PBS (Growcells, MRGF-6236) • Triton X100 (Sigma, P-T8787) • DMSO (Fisher, D128-1) • 2-Propanol (J. T. Baker, 9095-03) Method • Seed 1×10^6 HCT116 cells into each of two 175 cm^2 flask containing 30 mL Cell Growth Media and incubate at 37° C., 5% CO2 for 3 days. • Harvest the cells from one T175 cm^2 flask and count. • Dilute with Cell Growth Media to a cell density of 2×10^5. Dispense 100 μL to each well (20,000 HCT116 cells/well) of TC treated 96-well plate(s). • Allow cells to settle overnight in incubator set at 37° C. and 5% CO2. • Cell treatment: Transfer 0.25 μL/well from the compound plate to the wells of the cell plate(s). This is a 1:400 dilution of compound in the assay. • Once all cells are treated place the cells back to the incubator and incubate for either 6 hours (Method 2A) or 18 hours (Method 2B). • Dilute the capture antibody (total MCM2#A300-122A) 1 in 250 in the required volume of PBS (5 mL per assay plate, plus 5 mL for dead volume) and add 50 μL to each well of a Hybond plate except wells A12 & B12. Seal the plate and incubate at room temperature for a minimum of 2 hours. • Defrost aliquot of Invitrogen Cell Extraction Buffer (FNN0011) on ice and supplement with appropriate volume of both Sigma protease inhibitor cocktail (P-2714) and PMSF (final conc 1 mM from a 1 M stock in DMSO). • After the 6 hour or 18 hour cell treatment time, tap out the media from the assay plates and place them in the −70° C. freezer for at least 5 minutes. • Flick out the remaining liquid in the previously prepared capture Ab plate(s) and add 200 μL 2% BSA per well. Incubate for 1 hour at room temperature. • Remove plates from freezer and add 20 μL of ice cold complete lysis buffer. Incubate cells for 30 minutes at 4° C. • Add 30 μL per well 2% BSA • At the end of the 1 hour incubation, wash the Capture/ELISA plate(s) with Wash Buffer on the BioTek plate washer. • Transfer 40 μL per well of the lysis plate(s) to the same wells in the Capture/ELISA plate. Incubate cells overnight at 4° C. • At the end of the overnight incubation, wash the ELISA plate(s) with Wash Buffer on BioTek plate washer. • Prepare Detection Antibody Buffer and dispense 50 μL to all wells of ELISA plate(s) except wells G1 & H1. Cover plate and incubate at room temperature for 2 hours with gentle shaking. • At the end of the 2 hour incubation, wash the ELISA plate(s) with Wash Buffer on the BioTek plate washer. • Prepare the Conjugated Antibody Buffer and dispense 50 μL to all wells of ELISA plate(s). • Cover the plate and incubate at room temperature for 1 hour with gentle shaking. • At the end of the 1 hour incubation, wash the ELISA plate(s) with Wash Buffer on the BioTek plate washer. • Prepare Substrate Buffer and dispense 50 μL to all wells of ELISA plate(s). • Incubate for a minimum of 10 minutes and read plates on the EnVision 2100 Multilabel Reader (Mirror: Luminescence (404) & Luminescence 700 (212); Measurement Height: 6.5 mm; Measurement Time: 0.2 s). Method 3

For assay [3] the test system is unchanged. Nature of the assay: Cdc7 Cell Pharmacodynamics Assay Method 2B: pS40MCM2 levels in HCT116 cells, 18 hours. In kind it is cell-based. Conditions: Homo sapiens, HCT-116, read-out: Biomarker Method 2B (pEC50) (converted).
Source text: as §1, §2

Assay [4] concerns the target Cdc7/ASK (Homo sapiens, UniProt O00311). Description: Cdc7 Biochemical Assay Method 2: 384 well mobility shift assay (EZ Reader II), MCM2 peptide substrate. Set-up: purchased. The settings on record: 12.5 μM ATP, read-out: Biochemical Method 2 (pIC50) (converted). On the procedure:
This protocol describes a method for assaying Cdc7/ASK for activity. The assay is a 384 well mobility shift assay (MSA) run on the EZ Reader II microfluidics plate reader (Caliper LifeSciences), utilising a peptide substrate based on the MCM2 sequence. The assay technology is based on the change in mobility between the peptide substrate and the phosphorylated product. A 10 nL volume of the reaction mixture is sipped onto the microfluidic chip where the substrate and product are separated by electrophoresis and detected via laser-induced fluorescence (488 nm LED). The reaction can be monitored in real-time for kinetic experiments or as an end-point for IC50 determinations. The % conversion of substrate is calculated from peak heights of product (P) and substrate (S) peptides (% conversion=P/(P+S)*100).
• 10× Assay Buffer: 200 mM HEPES pH 8, 100 mM MgCl2, 0.1% v/v Triton X-100 and 15 mM DTT. Prepare fresh buffer from 1 M HEPES pH 8, 1 M MgCl2, 1 M DTT and 10% Triton x-100 stocks for each experiment. • Cdc7/ASK is purchased from commercial suppliers and used in the assay at a final assay concentration of 0.847 ng/μL or 9.2 nM. • MCM2 peptide is purchased from commercial suppliers and used in the assay at a final assay concentration of 2.5 μM. • ATP used in the assay at a final assay concentration of 12.5 μM. Methods • 1. Prepare intermediate (daughter) compound plate by transferring 2 μL of compound from the mother plate to 18 μL of 33.3% DMSO in a clear polypropylene plate. • 2. Dry-spot 1 μL of compound from the intermediate compound plate to empty assay plate. • 3. Add 5 μL of 1.694 ng/μL CDC7/ASK working solution to ‘test’ and ‘control’ wells or […] of 2× Assay Buffer to ‘blank’ wells. • 4. Add 4 μL 2.5 μM peptide/12.5 μM ATP working solution to all wells. • 5. Incubate at 37° C. for 1 hour then remove from the incubator and leave for a further 1 hour at room temperature. • 6. Place plate into an EZReader II to read.
Percentage inhibition values were calculated from % of substrate conversion values, using the no compound (DMSO) and no enzyme control values as 0% and 100% inhibition, respectively. IC50 determination was performed with ExcelFit software (IDBS) using curve fit 205. Z′ factors were determined for each plate tested and were all above 0.5.

Chain of Cdc7/Dbf4 (O00311 whole entry): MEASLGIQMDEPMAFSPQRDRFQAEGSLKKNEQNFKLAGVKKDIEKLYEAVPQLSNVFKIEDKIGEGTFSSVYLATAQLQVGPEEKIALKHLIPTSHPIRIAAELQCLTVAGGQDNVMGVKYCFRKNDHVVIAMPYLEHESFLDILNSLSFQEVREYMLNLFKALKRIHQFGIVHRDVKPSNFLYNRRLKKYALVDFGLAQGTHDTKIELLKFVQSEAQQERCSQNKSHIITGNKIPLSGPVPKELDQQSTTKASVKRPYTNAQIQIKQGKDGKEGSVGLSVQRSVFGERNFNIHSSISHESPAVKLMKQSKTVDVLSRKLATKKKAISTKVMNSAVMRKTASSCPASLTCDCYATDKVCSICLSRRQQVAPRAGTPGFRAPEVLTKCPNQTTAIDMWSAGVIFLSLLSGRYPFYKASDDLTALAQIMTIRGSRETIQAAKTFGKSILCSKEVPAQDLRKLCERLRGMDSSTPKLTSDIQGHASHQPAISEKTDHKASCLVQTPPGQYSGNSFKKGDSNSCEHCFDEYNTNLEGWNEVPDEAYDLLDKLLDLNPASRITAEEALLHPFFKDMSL
Chain of Cdc7/Dbf4 (Q9UBU7 whole entry partner): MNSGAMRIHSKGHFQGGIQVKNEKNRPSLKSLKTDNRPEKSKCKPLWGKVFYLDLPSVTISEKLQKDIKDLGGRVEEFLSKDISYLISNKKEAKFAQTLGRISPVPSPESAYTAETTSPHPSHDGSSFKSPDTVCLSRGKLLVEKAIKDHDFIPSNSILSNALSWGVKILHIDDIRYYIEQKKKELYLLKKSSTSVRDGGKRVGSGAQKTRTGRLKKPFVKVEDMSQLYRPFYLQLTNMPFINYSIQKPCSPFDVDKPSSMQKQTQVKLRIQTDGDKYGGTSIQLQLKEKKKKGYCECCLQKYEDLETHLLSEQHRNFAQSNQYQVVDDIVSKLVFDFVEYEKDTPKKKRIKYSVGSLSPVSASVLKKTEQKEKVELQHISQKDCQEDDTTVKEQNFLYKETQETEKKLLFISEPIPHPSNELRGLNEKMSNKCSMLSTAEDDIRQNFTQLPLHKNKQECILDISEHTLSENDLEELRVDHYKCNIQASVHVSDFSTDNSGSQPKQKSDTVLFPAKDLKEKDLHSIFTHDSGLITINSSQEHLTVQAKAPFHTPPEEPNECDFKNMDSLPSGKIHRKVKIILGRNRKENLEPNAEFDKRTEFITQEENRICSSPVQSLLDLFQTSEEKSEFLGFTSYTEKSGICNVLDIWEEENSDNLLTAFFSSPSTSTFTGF
Chain of Cdc7/ASK (O00311 whole entry): as the sequence (O00311 whole entry) above
Chain of Cdc7/ASK (Q9UBU7 whole entry partner): as the sequence (Q9UBU7 whole entry partner) above

Take `CC(=O)NC1CCN(c2nc(-c3ccnc(F)c3)[nH]c(=O)c2Cl)CC1` [Compound 232]: the IC50 in assay [1] was 1.02 nM. For the same compound, the results for the EC50 in assay [2] and in assay [3] were 2000 nM and 977 nM, respectively.

For `CC[C@@H]1CN(c2nc(-c3ccnc(F)c3)[nH]c(=O)c2Cl)CCO1` [Compound 205], in assay [1], the IC50 is 1.41 nM. The EC50 in assay [2] was 275 nM.

For `O=c1[nH]c(-c2ccnc(F)c2)nc(N2CCC3NCCCC32)c1Cl` (stereo not drawn) [Compound 223], in assay [1], the IC50 was 2.88 nM. Also, the EC50 in assay [2] was 56.2 nM; in assay [3], 47.9 nM.

For the compound `CN[C@H]1CCCN(c2nc(-c3ccnc(F)c3)[nH]c(=O)c2Cl)C1` [Compound 197], the IC50 in assay [1] is 2.4 nM. Also, the EC50 in assay [2] was 316 nM.

As for `C[C@H]1CNCCN1c1nc(-c2ccnc(F)c2)[nH]c(=O)c1Cl` [Compound 326], the IC50 in assay [1] was 0.49 nM. Besides, the EC50 in assay [2] is 40.7 nM.

Turning to `O=c1[nH]c(-c2ccnc(F)c2)nc(N2CCC3NCCC32)c1Cl` (stereo not drawn) [Compound 243], the IC50 in assay [1] was 2 nM. Besides, in assay [2], the EC50 is 288 nM.

`N[C@@H]1CCCCN(c2nc(-c3ccnc(F)c3)[nH]c(=O)c2Cl)C1` [Compound 183, 4-[(3R)-3-aminoazepan-1-yl]-5-chloro-2-(2-fluoro-4-pyridyl)-1H-pyrimidin-6-one 2,2,2-trifluoroacetic acid]: the IC50 in assay [1] was 0.513 nM. Besides, the EC50 in assay [2] was 148 nM.

For the compound `CC(C)(C)[C@H]1CN(c2nc(-c3ccncc3)[nH]c(=O)c2C#N)CCN1` [Compound 411, 4-[(3S)-3-tert-butylpiperazin-1-yl]-6-oxo-2-(4-pyridyl)-1H-pyrimidine-5-carbonitrile], the IC50 in assay [4] is 10.5 nM.

For `O=c1[nH]c(-c2ccnc(F)c2)nc(N2CCNCC(O)C2)c1Cl` (stereo not drawn) [Compound 190], the IC50 in assay [1] is 0.708 nM. Also, the EC50 in assay [2] is 741 nM.

Take `C[C@H]1COCCN1c1nc(-c2ccnc(F)c2)[nH]c(=O)c1Cl` [Compound 333]: the IC50 in assay [1] is 1.23 nM. Further, the EC50 in assay [2] was 347 nM; in assay [3], 87.1 nM.

Consider `N[C@@H]1CN(c2nc(-c3ccnc(F)c3)[nH]c(=O)c2Cl)CC[C@H]1O` [Compound 235], for which, in assay [1], the IC50 was 1.2 nM. In addition, the EC50 in assay [2] was 1120 nM.

As for `CN[C@@H]1CCCN(c2nc(-c3ccnc(F)c3)[nH]c(=O)c2Cl)C1` [Compound 196], the IC50 in assay [1] is 1.91 nM. Also, the EC50 in assay [2] was 72.4 nM.

Turning to `NC[C@@H]1CCN(c2nc(-c3ccnc(F)c3)[nH]c(=O)c2Cl)C1` [Compound 318], the IC50 in assay [4] was 14.1 nM.

In the case of `O=c1[nH]c(-c2ccnc(F)c2)nc(N2CCC3CCNCC32)c1Cl` (stereo not drawn) [Compound 221], the IC50 in assay [1] was 2.88 nM. Also, the EC50 in assay [2] is 1620 nM; in assay [3], 562 nM.

Turning to `O=C1CCCN(c2nc(-c3ccnc(F)c3)[nH]c(=O)c2Cl)CC1` [Compound 203], the IC50 in assay [1] is 2.95 nM. Besides, the EC50 in assay [2] is 363 nM.

Consider `O=C1CNCCN(c2nc(-c3ccnc(F)c3)[nH]c(=O)c2Cl)C1` [Compound 412, 1-[5-chloro-2-(2-fluoro-4-pyridyl)-6-oxo-1H-pyrimidin-4-yl]-1,4-diazepan-6-one 2,2,2-trifluoroacetic acid], for which the IC50 in assay [1] was 0.646 nM. Also, in assay [2], the EC50 was 339 nM.

For `O=c1[nH]c(-c2ccnc(F)c2)nc(N2C3CCC2COC3)c1Cl` [Compound 192], in assay [1], the IC50 was 0.813 nM. Moreover, the EC50 is 89.1 nM in assay [2] and 49 nM in assay [3].

With `CCCC1COCCN1c1nc(-c2ccncc2)[nH]c(=O)c1Cl` (stereo not drawn) [Compound 366], the IC50 in assay [4] is 60.3 nM.

Consider `N[C@H]1CCCCN(c2nc(-c3ccnc(F)c3)[nH]c(=O)c2Cl)C1` [Compound 188], for which the IC50 in assay [1] is 1.74 nM. In addition, the EC50 in assay [2] was 170 nM.

With `O=c1[nH]c(-c2ccnc(F)c2)nc(N2C3CCCC2COC3)c1Cl` [Compound 334], in assay [1], the IC50 was 0.724 nM. The EC50 is 135 nM in assay [2] and 61.7 nM in assay [3].

Consider `CC(C)[C@H]1CN(c2nc(-c3ccncc3)[nH]c(=O)c2C#N)CCN1` [Compound 409, 4-[(3S)-3-isopropylpiperazin-1-yl]-6-oxo-2-(4-pyridyl)-1H-pyrimidine-5-carbonitrile], for which the IC50 in assay [4] is 11.5 nM.

Regarding `O=c1[nH]c(-c2ccncc2)nc(N2CCNCC2c2ccccc2)c1Cl` (stereo not drawn) [Compound 372], the IC50 in assay [4] is 263 nM.

Take `CC(C)CC1COCCN1c1nc(-c2ccncc2)[nH]c(=O)c1Cl` (stereo not drawn) [Compound 367]: the IC50 in assay [4] was 295 nM.

Take `O=C1CCN(c2nc(-c3ccnc(F)c3)[nH]c(=O)c2Cl)CC1` [Compound 234]: the IC50 in assay [1] was 1.38 nM. For the same compound, in assay [2], the EC50 was 38.9 nM.

(Values after US10919896B2, “Preparation and uses of pyrimidinone derivatives” (Cancer Research Technology Limited, priority 2016, dated 2021).)
